According to patent US8791132B2, “Compounds and methods for treatment of hypertension” (Medivation Technologies, Inc., priority 2011, dated 2014):

Columns and labels:
[1] = system: conscious New Zealand White rabbits; assay: Blood pressure in conscious rabbits; type: in vivo, rabbit; settings: i.v. cumulative dose-response study, Compound 3b maximum at 10 mg/kg
Protocol: Methods: Four adult New Zealand White rabbits of both sexes were chosen for these studies. […] To unveil peripheral effects of Compound 3b, two sets of acute studies were conducted in rabbits. […] A single intravenous bolus dose at 3 mg/kg was given and a time-course study was conducted in the second set of studies. Systolic, […], mean and […] blood pressures were recorded in both the studies. […] In a separate set of studies, Clonidine (positive control) was tested where all experimental procedures including dose-regimen were identical to that of the studies with […].

[2] = system: SH-SY5Y cells over-expressing α-syn; assay: Cell viability (MTS reduction) in SH-SY5Y cells over-expressing α-synuclein; type: cell-based; settings: Homo sapiens, 336 h, α-syn over-expression (−dox), compounds at 10 nM, +dox control = 100, 14 days, read-out: Relative cell viability protection
Protocol: Cell Culture. SH-SY5Y cells stably transfected with a doxycyline-inducible wild-type α-synuclein (α-syn) gene along with control SH-SY5Y cells over-expressing the β-galactosidase (β-gal) gene (a gift from L. Stefanis, Division of Basic Neurosciences, Biomedical Research Foundation of the Academy of Athens, Athens, Greece) are cultured as described by Vekrellis et al. (Vekrellis K, Xilouri M, Emmanouilidou E, Stefanis L. (2009). Inducible over-expression of α-syn in human neuronal cells leads to caspase-dependent non-apoptotic death. J Neurochem 109, 1348-1362). In accordance with this method, cells are cultured and maintained in RPMI 1640, 10% fetal bovine serum supplemented with 250 μg/mL G418 and 50 μg/mL Hygromycin B. Expression of α-syn is switched off in stock cultures with doxycycline (2 μg/mL). For experimental procedures, cells are plated at (4−8×10^4 cells/cm^2) and differentiated in absence of doxycycline and in the presence of 20 μM all-trans retinoic acid (RA) (Sigma, St Louis, Mo., USA).
Viability Assay: Cells are cultured in 96-well plates. After 24 h, cells are treated with RA and Compounds of Invention at 0.1 and 10 nM in the absence of doxycyline. Culture medium with RA and drugs is fully replaced after 7 days. Cell viability is measured by the release of lactate dehydrogenase (LDH) from necrotic cells into the culture medium and by measuring the capacity of cells to metabolize MTS tetrazolium (MTS) after 14 days in culture. LDH leakage is assessed according to the Cytotoxicity Detection KitPlus (Roche, Mannheim, Germany) and MTS reduction is assessed by the CellTiter 96® AQueous One Solution Cell Proliferation assay (Promega Corporation, Madison, Wis., USA).
Assay results for the experiments with α-syn over-expression are presented as the MTS reduction capacity (cell viability) of control cells (+dox), cells over-expressing α-syn (−dox), and cells over-expressing α-syn incubated with Compounds of the Invention at 0.1 nM (FIG. 18A) or 10 nM (FIG. 18B).

SH-SY5Y cells = assay: Cell viability (MTS reduction) in 4-Br-A23187-treated SH-SY5Y cells; type: cell-based; settings: MTS reduction capacity
Protocol: After 24 h, cells were depleted from FBS and kept in culture for 24 h before the experiment. Cells were then treated with 4-Br-A23187 (2 μM), hydrogen peroxide (300 μM) or the mitochondrial toxin rotenone (25 μM) in the presence of vehicle or Compound of the Invention for 24 h. Cell death was determined by measurements of LDH release according to the Cytotoxicity Detection KitPlus (Roche, Mannheim, Germany). Cell viability was determined by measuring the capacity of cells to metabolize MTS tetrazolium (MTS) according to the Cytotoxicity Detection KitPlus (Roche, Mannheim, Germany) and MTS reduction is assessed by the CellTiter 96® AQueous One Solution Cell Proliferation assay (Promega Corporation, Madison, Wis., USA). Compounds were screened at 10 nM, using DMSO as vehicle. Assay results for the experiments with hydrogen peroxide are presented as the LDH release (cell death) of untreated cells (control), hydrogen peroxide-treated cells (vehicle), and co-incubation of hydrogen peroxide with Compounds of the Invention treated cells normalized to the vehicle (FIG. 17A). This assay assesses the ability of the test compounds to protect against cell death that is mediated by mitochondrial dysfunction. In the assay, the calcium ionophore 4-Br-A23187 is used to challenge the cells, causing calcium levels to rise in mitochondria, which leads to depolarization and cell death. Test compounds are assessed for their ability to prevent cell death in response to challenge with 4-Br-A23187.

[3] = molecular target: T1, human recombinant adrenergic α1D receptor (Homo sapiens, UniProt P25100); assay: Radioligand binding, adrenergic α1D ([3H]Prazosin); settings: compound at 0.1 μM; [3H]Prazosin; repeat assays, each datapoint shown; read-out: Percentage inhibition of ligand binding, Adrenergic α1D
T1 construct: expressed in transfected cells; host or cells: HEK-293
T1 sequence (P25100 1-572): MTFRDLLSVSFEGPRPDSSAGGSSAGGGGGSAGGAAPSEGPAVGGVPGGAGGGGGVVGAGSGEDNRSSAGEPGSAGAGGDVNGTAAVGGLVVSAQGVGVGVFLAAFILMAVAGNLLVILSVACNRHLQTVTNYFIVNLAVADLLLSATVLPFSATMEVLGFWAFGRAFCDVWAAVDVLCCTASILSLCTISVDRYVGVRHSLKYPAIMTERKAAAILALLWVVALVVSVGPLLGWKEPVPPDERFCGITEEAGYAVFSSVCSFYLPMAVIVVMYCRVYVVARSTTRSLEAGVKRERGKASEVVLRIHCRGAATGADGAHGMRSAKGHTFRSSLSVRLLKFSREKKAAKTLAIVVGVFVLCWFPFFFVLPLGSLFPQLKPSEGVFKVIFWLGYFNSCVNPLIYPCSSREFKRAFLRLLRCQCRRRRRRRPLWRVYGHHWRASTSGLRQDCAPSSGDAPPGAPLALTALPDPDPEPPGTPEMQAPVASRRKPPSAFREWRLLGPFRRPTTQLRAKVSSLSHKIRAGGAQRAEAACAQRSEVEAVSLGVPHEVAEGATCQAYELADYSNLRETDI
Protocol: Compounds were incubated with 0.6 nM [3H]Prazosin for 60 min at 25° C. Non-specific binding was estimated in the presence of 10 μM phentolamine. Receptor proteins were filtered and washed, the filters were then counted to determine [3H]Prazosin specifically bound. […] Biochemical assay results are presented as the percent inhibition of specific binding in Table B1.

[4] = molecular target: T2, rat adrenergic α1B receptor (Rattus norvegicus, UniProt P15823); assay: Radioligand binding, adrenergic α1B ([3H]Prazosin); settings: compound at 0.1 μM, [3H]Prazosin, repeat assays, each datapoint shown; for Percentage inhibition of ligand binding, Adrenergic α1B: 0.1 µM
T2 construct: rat adrenergic α1B receptor obtained from Wistar Rat liver; from tissue; host or cells: Wistar rat liver
T2 sequence (P15823 1-515): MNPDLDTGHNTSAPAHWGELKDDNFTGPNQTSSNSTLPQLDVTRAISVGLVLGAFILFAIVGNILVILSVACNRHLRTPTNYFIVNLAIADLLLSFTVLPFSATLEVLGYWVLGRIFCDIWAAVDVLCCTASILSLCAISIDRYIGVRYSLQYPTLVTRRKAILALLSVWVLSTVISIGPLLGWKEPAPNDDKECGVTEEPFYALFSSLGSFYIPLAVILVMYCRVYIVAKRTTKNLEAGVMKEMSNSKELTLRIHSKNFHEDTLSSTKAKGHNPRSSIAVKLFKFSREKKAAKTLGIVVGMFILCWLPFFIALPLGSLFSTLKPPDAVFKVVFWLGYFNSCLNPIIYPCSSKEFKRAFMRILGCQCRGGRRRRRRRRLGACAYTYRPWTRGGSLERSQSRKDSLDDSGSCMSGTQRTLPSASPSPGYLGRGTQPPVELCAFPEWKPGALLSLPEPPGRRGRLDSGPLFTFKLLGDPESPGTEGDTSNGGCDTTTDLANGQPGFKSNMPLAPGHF
Procedure, shortened: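 Rat α1B receptor from Wistar rat liver was incubated with 0.25 nM [3H]prazosin for 60 min at 25 °C in 50 mM Tris-HCl, pH 7.4, 0.5 mM EDTA. Non-specific binding was defined with 10 μM phentolamine. Bound radioligand was measured by filtration and counting, reported as percent inhibition of specific binding.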

[5] = molecular target: T3, human recombinant adrenergic α2B receptor (Homo sapiens, UniProt P18089); assay: Radioligand binding, adrenergic α2B ([3H]Rauwolscine); settings: [3H]Rauwolscine, repeat assays, each datapoint shown
T3 construct: expressed in transfected cells; host or cells: CHO-K1
T3 sequence (P18089 1-450): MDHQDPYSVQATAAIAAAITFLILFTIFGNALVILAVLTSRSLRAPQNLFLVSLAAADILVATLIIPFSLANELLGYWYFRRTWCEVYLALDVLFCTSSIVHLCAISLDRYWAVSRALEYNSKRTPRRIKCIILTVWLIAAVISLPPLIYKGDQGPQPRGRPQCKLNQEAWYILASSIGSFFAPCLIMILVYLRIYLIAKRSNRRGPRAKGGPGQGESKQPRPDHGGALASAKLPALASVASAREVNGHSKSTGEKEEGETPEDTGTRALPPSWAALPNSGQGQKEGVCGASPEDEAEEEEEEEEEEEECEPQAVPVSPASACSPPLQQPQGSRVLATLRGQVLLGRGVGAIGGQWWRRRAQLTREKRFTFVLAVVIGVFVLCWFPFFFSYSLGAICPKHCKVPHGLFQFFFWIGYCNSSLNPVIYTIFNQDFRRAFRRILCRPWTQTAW
Procedure, shortened: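 Assay used CHO-K1-expressed human α2B receptor in Tris-HCl pH 7.4 buffer with MgCl2, EDTA and BSA; 60 min incubation at 25 °C.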

[6] = molecular target: T4, human recombinant adrenergic α2A receptor (Homo sapiens, UniProt P08913); assay: Radioligand binding, adrenergic α2A ([3H]MK-912); settings: compound at 0.1 μM; [3H]MK-912; repeat assays, each datapoint shown
T4 construct: expressed in transfected cells; host or cells: insect Sf9 cells
T4 sequence (P08913 1-465): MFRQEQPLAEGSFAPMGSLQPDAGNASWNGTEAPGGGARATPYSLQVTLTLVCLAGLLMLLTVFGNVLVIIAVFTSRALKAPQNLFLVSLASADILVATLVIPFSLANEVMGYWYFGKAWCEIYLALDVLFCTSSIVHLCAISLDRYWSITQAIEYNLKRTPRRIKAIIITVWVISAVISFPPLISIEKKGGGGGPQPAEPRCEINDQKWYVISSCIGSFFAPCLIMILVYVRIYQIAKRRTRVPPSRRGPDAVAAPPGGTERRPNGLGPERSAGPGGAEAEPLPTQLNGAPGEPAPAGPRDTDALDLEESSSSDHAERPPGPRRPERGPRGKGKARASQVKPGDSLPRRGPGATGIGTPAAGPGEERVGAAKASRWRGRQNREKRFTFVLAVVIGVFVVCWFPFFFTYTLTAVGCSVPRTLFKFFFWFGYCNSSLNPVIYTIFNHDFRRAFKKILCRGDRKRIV
Procedure, shortened: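 Displacement of 1 nM [3H]MK-912 from receptor produced in insect Sf9 cells was measured after 60 min at 25 °C. Readout: percent inhibition of specific binding.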

[7] = 4-Br-A23187 2 μM, 24 h, compounds at 10 nM

## Clc1cccc(Cl)c1N=C1NCCN1 [Clonidine, clonidine, reference compound]
[1]
  maximum arterial blood pressure drop: −6 mmHg

## Cc1ccc2c(c1)c1c(n2CC(O)c2ccncc2)CCN(C)C1 (stereo not drawn) [Cpd3b]
[2]
  viability at 0.01 µM: 78.3%

## CN1CCc2c(c3cc(Cl)ccc3n2CC(O)c2ccncc2)C1 (stereo not drawn) [Cpd4a]
[2]
  viability at 0.01 µM: 77.5%

## Cc1ccc2c(c1)c1c(n2CC(C)(O)c2cccnc2)CCN(C)C1 (stereo not drawn) [Cpd5b]
[2]
  viability at 0.01 µM: 85.3%

## Cc1ccc2c(c1)c1c(n2CC(O)c2ccncc2)CCNC1 (stereo not drawn) [Cpd39a]
[2]
  viability at 0.01 µM: 80.8%

## N#CC(C#N)=NNc1ccc(OC(F)(F)F)cc1 [FCCP, p-trifluoromethoxyphenylhydrazone, reference compound]
SH-SY5Y cells; FCCP at 10 μM for 30 min as a control
  Relative cell viability protection: 0.1035

## CN1CCc2c(c3cc(Cl)ccc3n2CC(O)c2ccncc2)C1 (stereo not drawn) [compound 4]
[3]
  inhibition at 0.1 µM: 12%
[4]
  Percentage inhibition of ligand binding, Adrenergic α1B: 60%
[4]; read-out: Percentage inhibition of ligand binding, Adrenergic α1B
  inhibition at 0.1 µM: 51%
SH-SY5Y cells; [7]
  Relative cell viability protection: 0.3463
[5]; compound at 0.1 μM, read-out: Percentage inhibition of ligand binding, Adrenergic α2B
  inhibition at 0.1 µM: 101%

## Cc1ccc2c(c1)c1c(n2CC(O)c2ccncc2)CCNC1 (stereo not drawn) [compound 39, 2-(8-methyl-1,2,3,4-tetrahydro-pyrido[4,3-b]indol-5-yl)-1-pyridin-4-yl-ethanol]
[6]
  Percentage inhibition of ligand binding, Adrenergic α2A: 1%
[4]
  Percentage inhibition of ligand binding, Adrenergic α1B: 25%
SH-SY5Y cells; [7]
  Relative cell viability protection: 0.36
[5]; compound at 0.03 μM, 0.03 µM
  Percentage inhibition of ligand binding, Adrenergic α2B: 89%
